Reference: patent US20040234517A1, “Compositions and methods for diagnosing and treating asthma or other allergic or inflammatory diseases” (WYETH, priority 2003, published 2004)
Read-outs that look alike come from different tables or passages of the source.

Assays:
[1] = system: arginase; test: arginase activity in internal anal sphincter
[2] = system: arginase; details: intact cells; cited from earlier work
[3] = system: arginase; test: arginase activity of murine macrophages (hydrolysis of L-arginine to L-ornithine); type: cell-based; details: unstimulated murine macrophages
Excerpt: Stimulation of murine macrophages with interferon-gamma and lipopolysaccharide (IFN-gamma+LPS) results in clear expression of an inducible NOS (iNOS) and to an increase in arginase activity.

[4] = target: arginase; details: IFN-gamma+LPS-stimulated macrophage; cited from earlier work
[5] = target: iNOS (Mus musculus, UniProt P29477); details: cited from earlier work
[6] = target: arginase; details: read-out: IC50 hydrolysis of L-arginine to L-ornithine; unstimulated murine macrophages (Tenu et al.); cited from earlier work
[7] = system: IL-13; details: mouse model, background; cited from earlier work
[8] = system: IL-13; test: lung ARG1 mRNA expression after ovalbumin allergen challenge; type: in vivo, Balb/c mice; details: mouse lung
Method: Balb/c mice were immunized by an intraperitoneal (i.p.) injection of 10 μg of OVA (Sigma, St. Louis, Mo.) in 200 μl of PBS on day 0. On days 14 and 25 mice were anesthetized with a mixture of ketamine and xylazine (45 and 8 mg/kg, respectively) and challenged intratracheally with 50 μl of a 1.5% solution of OVA or an equivalent volume of PBS. Mice were injected i.p. either with 100 μl of PBS, hIgG (400 μg/ml) or sIL-13α2-Fc (400 μg/ml) on days 24, 25 and 27. Purification of hIgG was carried according to Urban et al., Immunity 8(2): […], 1998. Lungs were collected and snap frozen for RNA isolation on day 28.
To identify changes in mRNA concentration dependent on IL-13 mediated signal transduction, two of the OVA-challenged mice were treated with three intraperitoneal injections of the soluble IL-13 receptor fusion protein, sIL-13Rα2-Fc, prior to and during the course of the allergic challenge. As control for the Fc-moiety of the receptor fusion protein, two of the OVA-challenged mice were similarly treated with intraperitoneal administration of hIgG. […]
Balb/C-treated and untreated mice were sensitized to OVA, treated with PBS, rIL-13 or sIL13Rα2.Fc as described in FIG. 1. Total lung RNA was isolated and analyzed for ARG1 expression as described in Example 2. The mRNA frequency is expressed as parts per million.

[9] = system: IL-13; test: OVA-challenge asthma model: mucus production and airway hyperresponsiveness; type: in vivo, mouse; details: FIG. 12 legend
Excerpt: It is generally accepted that allergic asthma is initiated by an inappropriate inflammatory reaction to airborne allergens. […] One murine model of asthma involves sensitization of the animal to ovalbumin (OVA) followed by intratracheal delivery of the OVA challenge. […] The cytokine IL-13, expressed by basophils, mast cells, activated T cells and NK cells, plays a central role in the inflammatory response to OVA in mouse lungs. […] Thus, IL-13 mediated signaling is sufficient to elicit all four asthma-related pathophysiological phenotypes and is required for the hypersecretion of mucous and induced AHR in the mouse model.
FIG. 12 is a graphical representation showing that ARG1 mRNA expression increases following direct pulmonary instillation of rIL-13 or intratracheal Ovalbumin allergen challenge. Blockade of IL-13 signaling by administration of sIL13Rα2.Fc inhibits 67% of induced Arg1 mRNA expression. Blockade of IL-13 using the soluble receptor sIL13Rα2.Fc inhibits the allergen induced mucus production and airway hyperresponsiveness (AHR).

## N[C@@H](CCCCB(O)O)C(=O)O [ABH, 2(S)-amino-6-boronohexanoic acid]
[1]
  potency relative to L-NOHA in inhibiting arginase activity: approximately 250 times

## NCCC[C@](N)(C(=O)O)C(F)F [DFMO, α-difluoromethylornithine]
[2]
  effect on the flux of L-arginine through arginase: inhibitive effect

## N=C(NO)NCC[C@H](N)C(=O)O [nor-NOHA, N(omega)-hydroxy-L-nor-arginine]
[3]
  potency relative to L-NOHA: about 40 fold
[4]
  IC50: 10 µM
[5]
  substrate or inhibitor for iNOS: neither a substrate nor an inhibitor
[6]
  IC50: 12 µM

B1: sIL13Rα2.Fc: soluble IL-13 receptor fusion protein, a soluble IL-13 antagonist (protein)
chain: DTEIKVNPPQDFEIVDPGYLGYLYLQWQPPLSLDHFKECTVEYELKYRNIGSETWKTIITKNLHYKDGFDLNKGIEAKIHTLLPWQCTNGSEVQSSWAETTYWISPQGIPETKVQDMDCVYYNWQYLLCSWKPGIGVLLDTNYNLFYWYEGLDHALQCVDYIKADGQNIGCRFPYLEASDYKDFYICVNGSSENKPIRSSYFTFQLQNIVKPLPPVYLTFTRESSCEIKLKWSIPLGPIPARCFDYEIEIREDDTTLVTATVENETYTLKTTNETRQLCFVVRSKVNIYCSDDGIWSEWSDKQCWEGEDLSKKTLLR
modifications: left off: a dimerising Fc or GST
notes: soluble IL-13 receptor fusion protein, a soluble IL-13 antagonist
[7]
  OVA-challenge induced goblet cell mucus synthesis and AHR to acetylcholine: completely blocked
[8]
  inhibition of induced Arg1 mRNA expression: 67%
[9]
  allergen induced mucus production and airway hyperresponsiveness (AHR): inhibits
